Experimental data published in patent US20050239654A1, “Synergistically acting herbicidal mixtures” (priority 2002, published 2005).

Assays:
Assay in all cases: Herbicidal action, post-emergence treatment, greenhouse
Type in all cases: in vivo
Avena fatua = system: Avena fatua
Text: (§1) The mixtures according to the invention were applied pre- or post-emergence (foliar treatment). The herbicidal compounds of component B and, if desired, of component C were applied in the formulation in which they are present as commercially available product.
(§2) The herbicidally active compounds of components A), B) and, if desired, C) were applied in succession or jointly, in the latter case in some cases as a tank mix and in some cases as a ready-mix, in the form of emulsions, aqueous solutions or suspensions, the vehicle being water (300-400 l/ha). In the case of the field trials, application was effected with the aid of a mobile plot sprayer.
(§3) The test period extended over 3 to 8 weeks, and the stands were also observed at later points in time.
(§4) Damage by the herbicidal compositions was evaluated with reference to a scale of 0% to 100 in comparison with untreated control plots. 0 means no damage and 100 means complete destruction of the plants.
(§5) In these examples, the value E at which only an additive effect of the individual active ingredients is to be expected was calculated by the method of S. R. Colby (Calculating synergistic and antagonistic responses of herbicide combinations, Weeds 15, 20 pp (1967)).
(§6) This was done using the formula [formula] where • X=Percentage of the herbicidal action of X at an application rate of x; • Y=Percentage of the herbicidal action of Y at an application rate of Y; • E=expected herbicidal action of X+Y at rates of application x+y (in %); or the formula [formula] where • X=Percentage of the herbicidal action of X at an application rate of x; • Y=Percentage of the herbicidal action of Y at an application rate of y; • Z=Percentage of the herbicidal action of Z at an application rate of z; • E=expected herbicidal action of X+Y+Z at rates of application x+y+z (in %)
(§7) If the value observed exceeds the value E calculated in accordance with Colby's formula, then synergism is present.

Amaranthus retroflexus = system: Amaranthus retroflexus
Text: as §1, §2, §3, §4, §5, §6, §7

Abutilon theophrasti = system: Abutilon theophrasti
Text: as §1, §2, §3, §4, §5, §6, §7

Commelina benghalensis = conditions: Table 4, 3.91 g/ha ai
Text: as §1, §2, §3, §4, §5, §6, §7

Galium aparine = system: Galium aparine
Text: as §1, §2, §3, §4, §5, §6, §7

Pharbitis purpurea = conditions: Table 12, 62.5 g/ha ai
Text: as §1, §2, §3, §4, §5, §6, §7

Echinochloa crus-galli = system: Echinochloa crus-galli
Text: as §1, §2, §3, §4, §5, §6, §7

Brachiaria plantaginea = system: Brachiaria plantaginea
Text: as §1, §2, §3, §4, §5, §6, §7

Polygonum persicaria = system: Polygonum persicaria
Text: as §1, §2, §3, §4, §5, §6, §7

SMILES: Cc1c(C(=O)c2cnn(C)c2O)ccc(S(C)(=O)=O)c1C1=NOCC1 [Ia.29, 4-[2-methyl-3-(4,5-dihydroisoxazol-3-yl)-4-methylsulfonyl-benzoyl]-1-methyl-5-hydroxy-1H-pyrazole]
- Avena fatua Damage (Avena fatua; Table 5, 0.98 g/ha ai): 0%
- Avena fatua Damage (Avena fatua; Table 6, 1.95 g/ha ai): 10%
- Amaranthus retroflexus Damage (Amaranthus retroflexus; Table 5, 0.98 g/ha ai): 60%
- Amaranthus retroflexus Damage (Amaranthus retroflexus; Table 7, 0.98 g/ha ai): 60%
- Abutilon theophrasti Damage (Abutilon theophrasti; Table 3, 0.98 g/ha ai): 30%
- Abutilon theophrasti Damage (Abutilon theophrasti; Table 9, 7.81 g/ha ai): 85%
- Commelina benghalensis Damage (Commelina benghalensis): 50%
- Galium aparine Damage (Galium aparine; Table 7, 0.98 g/ha ai): 20%
- Galium aparine Damage (Galium aparine; Table 8, 1.95 g/ha ai): 30%

SMILES: CCNc1nc(Cl)nc(NC(C)C)n1 [atrazine]
- Pharbitis purpurea Damage (Pharbitis purpurea): 80%
- Amaranthus retroflexus Damage (Amaranthus retroflexus; Table 7, 15.6 g/ha ai): 40%
- Echinochloa crus-galli Damage (Echinochloa crus-galli; Table 10, 125 g/ha ai): 30%
- Echinochloa crus-galli Damage (Echinochloa crus-galli; Table 12, 62.5 g/ha ai): 20%
- Echinochloa crus-galli Damage (Echinochloa crus-galli; Table 14, 125 g/ha ai): 30%
- Echinochloa crus-galli Damage (Echinochloa crus-galli; Table 16, 62.5 g/ha ai): 20%
- Brachiaria plantaginea Damage (Brachiaria plantaginea; Table 10, 125 g/ha ai): 25%
- Brachiaria plantaginea Damage (Brachiaria plantaginea; Table 16, 62.5 g/ha ai): 20%
- Abutilon theophrasti Damage (Abutilon theophrasti; Table 9, 125 g/ha ai): 30%
- Abutilon theophrasti Damage (Abutilon theophrasti; Table 14, 125 g/ha ai): 30%
- Galium aparine Damage (Galium aparine; Table 7, 15.6 g/ha ai): 0%
- Galium aparine Damage (Galium aparine; Table 8, 31.25 g/ha ai): 20%
- Galium aparine Damage (Galium aparine; Table 11, 125 g/ha ai): 60%
- Galium aparine Damage (Galium aparine; Table 15, 125 g/ha ai): 60%
- Polygonum persicaria Damage (Polygonum persicaria; Table 11, 125 g/ha ai): 60%
- Polygonum persicaria Damage (Polygonum persicaria; Table 13, 62.5 g/ha ai): 40%
- Polygonum persicaria Damage (Polygonum persicaria; Table 17, 62.5 g/ha ai): 40%
